Source: the Kinase Knowledgebase extract (Sharma et al. 2016)

Columns and labels:
[1] = molecular target: MAPK14 (human) (UniProt Q16539); test: Inhibition of MAPK14 Kinase Activity
[2] = molecular target: PIK3CA (human) (UniProt P42336); test: Inhibition of Substrate Phosphorylation by PIK3CA; conditions: hct 116,bxpc-3 pancreatic,mda-mb-468, concentration not given here
[3] = molecular target: PIK3CA (human) (UniProt P42336); test: Inhibition of PIK3CA Kinase Activity

Chain of MAPK14 (human) (Q16539 whole entry, looked up): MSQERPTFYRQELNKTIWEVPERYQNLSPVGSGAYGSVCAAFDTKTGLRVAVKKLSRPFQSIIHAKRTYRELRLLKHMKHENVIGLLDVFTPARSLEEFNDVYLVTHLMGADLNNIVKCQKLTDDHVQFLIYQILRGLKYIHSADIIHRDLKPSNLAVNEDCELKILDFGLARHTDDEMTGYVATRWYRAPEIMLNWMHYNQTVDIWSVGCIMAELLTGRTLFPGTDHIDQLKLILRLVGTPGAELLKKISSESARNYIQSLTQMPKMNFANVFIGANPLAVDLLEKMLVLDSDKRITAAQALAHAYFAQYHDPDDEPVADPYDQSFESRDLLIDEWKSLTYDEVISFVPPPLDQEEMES
Chain of PIK3CA (human) (P42336 whole entry, looked up): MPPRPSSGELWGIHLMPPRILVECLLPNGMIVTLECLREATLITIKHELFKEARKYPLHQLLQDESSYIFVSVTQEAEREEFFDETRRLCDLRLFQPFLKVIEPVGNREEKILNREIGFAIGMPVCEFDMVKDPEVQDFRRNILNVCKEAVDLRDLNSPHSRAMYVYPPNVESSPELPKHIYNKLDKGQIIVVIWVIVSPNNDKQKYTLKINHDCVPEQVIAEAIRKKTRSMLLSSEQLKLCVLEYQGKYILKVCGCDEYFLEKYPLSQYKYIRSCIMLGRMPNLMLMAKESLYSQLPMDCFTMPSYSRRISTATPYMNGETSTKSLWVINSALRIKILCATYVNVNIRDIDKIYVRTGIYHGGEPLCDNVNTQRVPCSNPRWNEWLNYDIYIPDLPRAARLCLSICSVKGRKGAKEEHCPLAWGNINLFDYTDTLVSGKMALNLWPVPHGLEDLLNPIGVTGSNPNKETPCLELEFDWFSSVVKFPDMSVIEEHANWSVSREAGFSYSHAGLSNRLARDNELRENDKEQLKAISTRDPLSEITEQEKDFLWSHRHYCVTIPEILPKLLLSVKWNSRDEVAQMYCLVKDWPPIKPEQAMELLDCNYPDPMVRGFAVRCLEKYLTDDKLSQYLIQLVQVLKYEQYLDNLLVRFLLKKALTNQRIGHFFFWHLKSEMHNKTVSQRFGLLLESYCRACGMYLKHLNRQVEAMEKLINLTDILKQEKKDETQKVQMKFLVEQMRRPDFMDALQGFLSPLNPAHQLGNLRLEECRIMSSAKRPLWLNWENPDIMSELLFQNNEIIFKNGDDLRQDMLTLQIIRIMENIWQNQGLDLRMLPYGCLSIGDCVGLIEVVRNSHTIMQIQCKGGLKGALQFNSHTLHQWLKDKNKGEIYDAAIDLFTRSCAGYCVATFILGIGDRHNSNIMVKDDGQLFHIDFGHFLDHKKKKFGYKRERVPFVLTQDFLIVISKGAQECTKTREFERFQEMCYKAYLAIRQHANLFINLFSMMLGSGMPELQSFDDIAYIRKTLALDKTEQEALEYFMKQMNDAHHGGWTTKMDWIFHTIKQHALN

| Structure (SMILES) | IC50 [1] [µM] | inhibition [2] [%] | IC50 [3] [µM] |
| --- | --- | --- | --- |
| CCNC(=O)Nc1ccc2ncc(-c3ccc(OC(=O)N(C)C)cc3)nc2n1 | > 100 |  |  |
| CCNC(=O)Nc1ccc(-c2cnc3ccc(NC(=O)NCC)nc3n2)cc1 | > 100 | 70 |  |
| CCNC(=O)Nc1ccc(-c2cnc3ccc(NC(=O)NCC)nc3n2)cn1 | > 100 |  |  |
| CCNC(=O)Nc1ccc2ncc(Nc3ccc(NC(C)=O)cc3)nc2n1 | > 100 |  |  |
| COc1cc(-c2cnc3ccc(NC(=O)NCCCCP(=O)(O)O)nc3n2)ccc1O | > 100 |  |  |
| CCNC(=O)Nc1ccc2ncc(-c3ccc(OC(=O)OCCOC)cc3)nc2n1 | > 100 | 100 |  |
| CCNC(=O)Nc1ccc2ncc(Nc3ccc(C)c(NS(C)(=O)=O)c3)nc2n1 |  | 90 |  |

Further lines, results first:

| IC50 [1] [µM] | inhibition [2] [%] | IC50 [3] [µM] | Structure (SMILES) |
| --- | --- | --- | --- |
| > 100 | 50 |  | CCNC(=O)Nc1ccc2ncc(-c3ccc(OC(=O)OC)cc3)nc2n1 |
| > 100 |  |  | CCNC(=O)Nc1ccc2ncc(-c3cccc(OC(=O)OCCOC)c3)nc2n1 |
| > 31.6 |  |  | COCCOC(=O)Oc1ccc(-c2cnc3ccc(NC(=O)NCCCCO)nc3n2)cc1 |
| > 100 |  |  | CCNC(=O)Nc1ccc2ncc(-c3ccc(NC(=O)OC(C)(C)C)cc3)nc2n1 |
| > 100 |  |  | CCNC(=O)Nc1ccc2ncc(-c3ccc(NC(=O)OCCOC)cc3)nc2n1 |
| > 100 |  |  | CCNC(=O)Nc1ccc2ncc(-c3ccc(OC(=O)OCC(C)C)cc3)nc2n1 |
| > 100 |  |  | CCOP(=O)(CCCCNC(=O)Nc1ccc2ncc(-c3ccc(O)c(OC)c3)nc2n1)OCC |
| > 100 |  | > 31.6 | CCNC(=O)Nc1ccc2ncc(-c3ccc(OC(=O)/C=C/c4ccccc4)cc3)nc2n1 |
| > 100 | 90 |  | CCNC(=O)Nc1ccc2ncc(-c3ccc(OC(=O)OCCOC)c(OC)c3)nc2n1 |
| > 100 |  |  | CCNC(=O)Nc1ccc2ncc(-c3ccc(NC(=O)COCCOC)cc3)nc2n1 |
| > 100 |  |  | CCNC(=O)Nc1ccc2ncc(-c3ccc(OC(=O)Oc4ccccc4)cc3)nc2n1 |
